From patent US20200032249A1, “LABELING, ISOLATION, & ANALYSIS OF RNA FROM RARE CELL POPULATIONS” (priority 2017, published 2020)

Tests used:
[1] = test system: CD/UPRT-expressing MDA231 cells; assay: expression of representative human genes in mouse lung lysates by RT-PCR; format: in vivo; settings: 250 mg/kg, 8 h, mouse lungs
Procedure: FIG. 5 a-e. Flura-tagging enables transcriptional profiling from micrometastatic lung xenografts. FIG. 5a—Representative H & E stained sections of mouse lungs harboring micrometastases (arrows) used in Flura-tagging experiments. […] Scale bar=2 mm (top), 100 μM (bottom). FIG. 5b—Representative micrometastasis in the context of lung vasculature. MDA231 cells were stained with anti-GFP antibody, blood vessels with anti-CD31 antibody and nuclei (DNA) with Hoechst 33258. Scale bar=50 μM. FIG. 5c—Quantification of the number of cells per micrometastasis per tissue section in engrafted lungs of mice used in the Flura-tagging experiments. The number of nuclei in individual micrometastases in lung sections from 16 separate mice were counted. […] Expression of the indicated representative genes in the lung lysates containing control MDA231 cells or MDA231 cells expressing CD/UPRT and treated with 250 mg/kg 5-FC for 8 h, was measured by RT-PCR using human specific primers (n=3). […] FIG. 5e—Flow cytometric quantification of the number of RFP+ MDA231 cells in mouse lung in the Flura-tagging experiments. […]
Mouse experiments were performed following the protocols approved by the MSKCC Institutional Animal Care and Use Committee (IACUC). […] Proliferation of injected cancer cells were quantified using bioluminescence imaging following retroorbital injection of luciferin. […]

MDA-MB-231 cells = assay: co-culture of CD-expressing MDA231 cells with unlabeled control cells, anti-BrdU immunostaining; format: cell-based, human; settings: CD only, without UPRT and thymine
Procedure: FIG. 1a-f. Labeling and purification of RNA by CD expression and 5-FC treatment. FIG. 1a—Schematic diagram showing RNA labeling using CD and 5-FC. FIG. 1b—Chemical reactions steps involved in the labeling of RNA using CD and 5-FC. The dotted arrow indicates the intermediary steps that are not shown. FIG. 1c Relative fold enrichment of mRNA isolated by Flura-tagging. 293T cells expressing CD or unlabeled controls were treated with 5-FC for the indicated times, labeled mRNAs were immunopurified using anti-BrdU antibody, and the levels of labeled mRNAs of the indicated genes relative to corresponding non-immunoprecipitated inputs normalized to immunopurified mRNAs from cells not expressing CD were quantified by RT-PCR. […] FIG. 1d—Schematic diagram of the constructs used for inducible expression of UPRT and/or CD, and the experimental design. Transduced RFP+MDA231 cells were mixed with unlabeled cells, treated with doxycycline for 24 h and then 5-FC for 4-12 h. Cells were analyzed by immunofluorescence or harvested for RNA analysis. FIG. 1e—Flura-tagging in MDA231 cells in vitro. […] The fold enrichment of the indicated representative human genes over mouse housekeeping genes (mHPRT1 and mLDH1) was measured by RT-PCR (n=3±S.E.). […]
Next, we determined whether 5-FU-labeled mRNAs can be specifically and efficiently isolated by immunoprecipitation. […]

Nc1nc(=O)[nH]cc1F [5-FC, 5-fluorocytosine]
range of expression of representative human genes vs control MDA231 cells [1]: ≤ 2 fold | 5-FU-labeling of neighboring cells not expressing CD (MDA-MB-231 cells): led to 5-FU-labeling of cells that did not express CD as well
